Where a name gives a salt, the structure may show the parent alone.

This assay addresses T1, human VR1 (Homo sapiens, UniProt Q8NER1).
T1 construct: expressed in transfected cells
In words: FLIPR based calcium assay, capsaicin-induced response in 1321N1 cells stably expressing human VR1. As to conditions: antagonism of capsaicin response; pKb generated from IC50 using the Cheng-Prusoff equation. In kind it is cell-based. How it is done: Transfected astrocytoma 1321N1 cells, stably expressing human VR1, were seeded into FLIPR plates at 25,000cells/well (96-well plate) and cultured overnight. The cells were subsequently loaded in medium containing 4 μM Fluo-3 AM (Molecular Probes) for 2 hours, at room temperature, in the dark. The plates were then washed 4 times with Tyrode containing 1.5 mM calcium, without probenecid. The cells were pre-incubated with compound or buffer control at room temperature for 30 minutes. Capsaicin (Sigma) was then added to the cells. Compounds having antagonist activity against the human VR1 were identified by detecting differences in fluorescence when measured after capsaicin addition, compared with no compound buffer controls.

T1 sequence (Q8NER1 whole entry): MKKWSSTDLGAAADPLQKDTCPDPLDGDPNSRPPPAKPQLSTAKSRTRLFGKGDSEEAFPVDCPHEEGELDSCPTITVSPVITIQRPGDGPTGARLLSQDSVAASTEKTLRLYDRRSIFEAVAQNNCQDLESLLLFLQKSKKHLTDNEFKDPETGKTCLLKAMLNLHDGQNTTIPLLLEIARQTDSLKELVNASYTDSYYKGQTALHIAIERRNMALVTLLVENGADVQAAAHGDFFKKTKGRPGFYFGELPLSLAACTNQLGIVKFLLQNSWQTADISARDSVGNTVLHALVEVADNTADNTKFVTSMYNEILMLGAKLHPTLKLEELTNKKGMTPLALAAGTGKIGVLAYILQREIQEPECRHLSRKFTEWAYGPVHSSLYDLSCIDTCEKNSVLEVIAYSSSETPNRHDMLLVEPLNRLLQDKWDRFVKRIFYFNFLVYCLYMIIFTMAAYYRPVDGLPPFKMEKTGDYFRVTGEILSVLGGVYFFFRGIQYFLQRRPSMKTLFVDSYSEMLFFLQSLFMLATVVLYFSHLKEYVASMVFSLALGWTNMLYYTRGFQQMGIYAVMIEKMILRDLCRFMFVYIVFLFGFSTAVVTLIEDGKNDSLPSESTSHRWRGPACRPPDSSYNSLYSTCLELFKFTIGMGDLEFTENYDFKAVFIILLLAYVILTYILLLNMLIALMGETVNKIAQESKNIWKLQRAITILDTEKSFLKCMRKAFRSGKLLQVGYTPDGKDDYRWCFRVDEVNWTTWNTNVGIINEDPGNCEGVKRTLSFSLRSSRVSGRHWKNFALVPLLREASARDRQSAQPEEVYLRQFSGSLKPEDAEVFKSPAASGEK

One may read the Kb as the affinity of an antagonist, worked out from how it opposes an agonist. With `COc1nc(N2CCC(NC(=O)Nc3cccc4c(C)nccc34)CC2)ccc1C(F)(F)F` [Example 2, 1-([6-Methoxy-5-trifluoromethylpyridinyl-2-yl]piperidin-4-yl)-3-(1-methyl-isoquinolin-5-yl)-urea hydrochloride], the antagonist equilibrium constant (Kb) was less than 100 nM. On to `Cc1nccc2c(NC(=O)NC3CCN(c4ncc(C(F)(F)F)cc4Cl)CC3)cccc12` [Example 1, 1-([3-Chloro-5-trifluoromethylpyridinyl-2-yl]piperidin-4-yl)-3-(1-methyl-isoquinolin-5-yl)-urea hydrochloride], for which the Kb was less than 100 nM.

These data come from patent US7528151B2, “Heterocyclic urea derivatives for the treatment of pain” (Glaxo Group Limited, priority 2003, dated 2009).
